≈ marks a conversion by molar mass, not a printed value.
What was measured:
Type in all cases: functional
[1] = system: Candida albicans; assay: Antifungal activity against Candida albicans isolate 1008 harboring ERG3 K97E, L193P, V237A, A351V, A353T and ERG11 E266D mutant genes assessed as lanosterol/obtusifoliol content in total sterol composition at 0.5 times MIC by GC-MS analysis
[2] = system: Candida albicans; assay: Antifungal activity against Candida albicans isolate 488 harboring ERG3 H243N, T330A, A351V and ERG11 D225G, E266D, E391G, V488I mutant genes by broth microdilution method in presence of 10 uM drug efflux inhibitor FK506
[3] = system: Candida albicans; assay: Antifungal activity against Candida albicans isolate 1008 harboring ERG3 K97E, L193P, V237A, A351V, A353T and ERG11 E266D mutant genes by broth microdilution method
[4] = system: Candida albicans; assay: Antifungal activity against Candida albicans isolate 177 assessed as 14alpha-methylergosta-8,24(28)-dien-3beta,6alpha-diol content in total sterol composition at 0.5 times MIC by GC-MS analysis
[5] = system: Candida albicans; assay: Antifungal activity against Candida albicans isolate 177 assessed as eburicol content in total sterol composition at 0.5 times MIC by GC-MS analysis
[6] = system: Candida albicans; assay: Antifungal activity against Candida albicans isolate 6 by broth microdilution method in presence of 10 uM drug efflux inhibitor FK506
[7] = system: Candida albicans; assay: Antifungal activity against Candida albicans isolate 488 harboring ERG3 H243N, T330A, A351V and ERG11 D225G, E266D, E391G, V488I mutant genes by broth microdilution method
[8] = system: Candida albicans; assay: Antifungal activity against Candida albicans isolate 12 harboring ERG3 W332R mutant gene by broth microdilution method
[9] = system: Candida albicans; assay: Antifungal activity against Candida albicans isolate 12 harboring ERG3 W332R mutant gene assessed as 14alpha-methylergosta-8,24(28)-dien-3beta,6alpha-diol content in total sterol composition at 0.5 times MIC by GC-MS analysis
[10] = system: Candida albicans; assay: Antifungal activity against Candida albicans isolate 12 harboring ERG3 W332R mutant gene assessed as ergosterol content in total sterol composition at 0.5 times MIC by GC-MS analysis
[11] = system: Candida albicans; assay: Antifungal activity against Candida albicans isolate 12 harboring ERG3 W332R mutant gene by broth microdilution method in presence of 10 uM drug efflux inhibitor FK506
[12] = system: Candida albicans; assay: Antifungal activity against Candida albicans isolate 14 by broth microdilution method
[13] = system: Candida albicans; assay: Antifungal activity against Candida albicans isolate 1008 harboring ERG3 K97E, L193P, V237A, A351V, A353T and ERG11 E266D mutant genes by broth microdilution method in presence of 10 uM drug efflux inhibitor FK506
[14] = system: Candida albicans; assay: Antifungal activity against Candida albicans isolate 488 harboring ERG3 H243N, T330A, A351V and ERG11 D225G, E266D, E391G, V488I mutant genes assessed as 14alpha-methyl fecosterol content in total sterol composition at 0.5 times MIC by GC-MS analysis
[15] = system: Candida albicans; assay: Antifungal activity against Candida albicans isolate 12 harboring ERG3 W332R mutant gene assessed as lanosterol/obtusifoliol content in total sterol composition at 0.5 times MIC by GC-MS analysis
[16] = system: Candida albicans; assay: Antifungal activity against Candida albicans isolate 12 harboring ERG3 W332R mutant gene assessed as 14alpha-methyl fecosterol content in total sterol composition at 0.5 times MIC by GC-MS analysis
[17] = system: Candida albicans; assay: Antifungal activity against Candida albicans isolate 1008 harboring ERG3 K97E, L193P, V237A, A351V, A353T and ERG11 E266D mutant genes assessed as 14alpha-methyl fecosterol content in total sterol composition at 0.5 times MIC by GC-MS analysis
[18] = system: Candida albicans; assay: Antifungal activity against Candida albicans isolate 490 harboring ERG3 D147G, T330A, A351V and ERG11 F72S, T229A, E266D, N440S, V488I, R523G mutant genes assessed as 14alpha-methylergosta-8,24(28)-dien-3beta,6alpha-diol content in total sterol composition at 0.5 times MIC by GC-MS analysis
[19] = system: Candida albicans; assay: Antifungal activity against Candida albicans isolate 177 by broth dilution method in presence of 10 uM drug efflux inhibitor FK506
[20] = system: Candida albicans; assay: Antifungal activity against Candida albicans isolate 14 assessed as lanosterol/obtusifoliol content in total sterol composition at 0.5 times MIC by GC-MS analysis
[21] = system: Candida albicans; assay: Antifungal activity against Candida albicans isolate 12 harboring ERG3 W332R mutant gene assessed as eburicol content in total sterol composition at 0.5 times MIC by GC-MS analysis
[22] = system: Candida albicans; assay: Antifungal activity against Candida albicans isolate 14 by broth microdilution method in presence of 10 uM drug efflux inhibitor FK506
[23] = system: Candida albicans; assay: Antifungal activity against Candida albicans isolate 14 assessed as ergosterol content in total sterol composition at 0.5 times MIC by GC-MS analysis
[24] = system: Candida albicans; assay: Antifungal activity against Candida albicans isolate 177 assessed as 14alpha-methyl fecosterol content in total sterol composition at 0.5 times MIC by GC-MS analysis
[25] = system: Candida albicans; assay: Antifungal activity against Candida albicans isolate 177 assessed as lanosterol/obtusifoliol content in total sterol composition at 0.5 times MIC by GC-MS analysis
[26] = system: Candida albicans; assay: Antifungal activity against Candida albicans isolate 6 assessed as ergosterol content in total sterol composition at 0.5 times MIC by GC-MS analysis
[27] = system: Candida albicans; assay: Antifungal activity against Candida albicans isolate 12 harboring ERG3 W332R mutant gene assessed as ergosta 7,22-dienol content in total sterol composition at 0.5 times MIC by GC-MS analysis
[28] = system: Candida albicans; assay: Antifungal activity against Candida albicans isolate 488 harboring ERG3 H243N, T330A, A351V and ERG11 D225G, E266D, E391G, V488I mutant genes assessed as lanosterol/obtusifoliol content in total sterol composition at 0.5 times MIC by GC-MS analysis
[29] = system: Candida albicans; assay: Antifungal activity against Candida albicans isolate 1008 harboring ERG3 K97E, L193P, V237A, A351V, A353T and ERG11 E266D mutant genes assessed as eburicol content in total sterol composition at 0.5 times MIC by GC-MS analysis
[30] = system: Candida albicans; assay: Antifungal activity against Candida albicans isolate 490 harboring ERG3 D147G, T330A, A351V and ERG11 F72S, T229A, E266D, N440S, V488I, R523G mutant genes by broth microdilution method in presence of 10 uM drug efflux inhibitor FK506
[31] = system: Candida albicans; assay: Antifungal activity against Candida albicans isolate 490 harboring ERG3 D147G, T330A, A351V and ERG11 F72S, T229A, E266D, N440S, V488I, R523G mutant genes assessed as lanosterol/obtusifoliol content in total sterol composition at 0.5 times MIC by GC-MS analysis

OC(Cn1cncn1)(Cn1cncn1)c1ccc(F)cc1F [FLUCONAZOLE]
Activity [1]: 14.4%
MIC [2]: 2 mg/L
MIC [3]: > 256 mg/L
Activity [4]: 6.5%
Activity [5]: 4.9%
MIC [6]: 1 mg/L
MIC [7]: > 256 mg/L
MIC [8]: > 256 mg/L
Activity [9]: 1.6%
Activity [10]: 2.6%
MIC [11]: > 256 mg/L
MIC [12]: 1 mg/L (≈ 3.27 µM)
MIC [13]: > 256 mg/L
Activity [14]: 55.6%
Activity [15]: 18.3%
Activity [16]: 64.3%
Activity [17]: 74%
Activity [18]: 13.7%
MIC [19]: 0.5 mg/L
Activity [20]: 10.6%
Activity [21]: 11.6%
MIC [22]: 1 mg/L
Activity [23]: 89.4%
Activity [24]: 2%
Activity [25]: 10.6%
Activity [26]: 74.5%
Activity [27]: 1.7%
Activity [28]: 15.2%
Activity [29]: 9.8%
MIC [30]: 2 mg/L
Activity [31]: 13.7%
